In paper PMC11704350 (2025):

What was measured:
[1] = test system: Nrf2C (DNA, i motif) CCCTCCCGCCCTTGCTCCCTTCCC; assay: fluorescent indicator displacement; settings: 100 mM KCl, 10 mM sodium cacodylate pH 6.5, room temperature, thiazole orange displaced
[2] = test system: Nrf2G (DNA, G4) GGGAAGGGAGCAAGGGCGGGAGGG; assay: CD melting (264 nm); settings: 100 mM KCl, 10 mM sodium cacodylate pH 6.5, 50 µM ligand, 10 µM DNA
[3] = test system: hTeloG (DNA, G4) GGGTTAGGGTTAGGGTTAGGGTTA; assay: UV titration (ligand absorbance); settings: 100 mM KCl, 10 mM sodium cacodylate pH 6.5, DNA up to 50 µM
[4] = test system: DAPG (DNA, G4) GGGGGCGGGGGCGGGGGCGGGGGCGGGGG; assay: UV titration (ligand absorbance); settings: 100 mM KCl, 10 mM sodium cacodylate pH 6.5, DNA up to 50 µM
[5] = test system: Nrf2G (DNA, G4) GGGAAGGGAGCAAGGGCGGGAGGG; assay: UV titration (ligand absorbance); settings: 100 mM KCl, 10 mM sodium cacodylate pH 6.5, DNA up to 50 µM
[6] = test system: Nrf2C (DNA, i motif) CCCTCCCGCCCTTGCTCCCTTCCC; assay: UV titration (ligand absorbance); settings: 100 mM KCl, 10 mM sodium cacodylate pH 6.5, DNA up to 50 µM
[7] = test system: DS (DNA, duplex) GGCATAGTGCGTGGGCGTTAGC/GCTAACGCCCACGCACTATGCC; assay: UV titration (ligand absorbance); settings: 100 mM KCl, 10 mM sodium cacodylate pH 6.5, DNA up to 50 µM
[8] = test system: hTeloC (DNA, i motif) TAACCCTAACCCTAACCCTAACCC; assay: UV titration (ligand absorbance); settings: 100 mM KCl, 10 mM sodium cacodylate pH 6.5, DNA up to 50 µM
[9] = test system: DAPC (DNA, i motif) CCCCCGCCCCCGCCCCCGCCCCCGCCCCC; assay: UV titration (ligand absorbance); settings: 100 mM KCl, 10 mM sodium cacodylate pH 6.5, DNA up to 50 µM
[10] = test system: DS (DNA, duplex) GGCATAGTGCGTGGGCGTTAGC/GCTAACGCCCACGCACTATGCC; assay: CD melting (253 nm); settings: 100 mM KCl; 10 mM sodium cacodylate pH 6.5; 50 µM ligand, 10 µM DNA
[11] = test system: Nrf2C (DNA, i motif) CCCTCCCGCCCTTGCTCCCTTCCC; assay: CD melting (288 nm); settings: 100 mM KCl; 10 mM sodium cacodylate pH 6.5; 50 µM ligand, 10 µM DNA
[12] = 0.5 µM DNA (legend; methods 1 µM)

Cc1c2ccncc2c(C)c2c1[nH]c1ccccc12
DC50 [1, 12]: 3.9 ± 1.0 µM

COc1cc(-c2ccc(Nc3ccccc3C(=O)O)c(OC)c2)ccc1Nc1ccccc1C(=O)O
DC50 [1, 12]: 2.3 ± 0.1 µM

C=Cc1cc(OC)c2c(c1)c(=O)oc1c2cc(OC)c2c(O)ccc(C3OC(C)C(O)C(C)(O)C3O)c21 (stereo not drawn)
DC50 [1, 12]: 6.3 ± 0.6 µM

Clc1c(Cl)c(Cl)c2[nH]nnc2c1Cl
DC50 [1, 12]: 3.2 ± 0.1 µM

O=C1c2cccc3cc([N+](=O)[O-])cc(c23)C(=O)N1CCN1CCCC1
ΔTm [2]: 9 ± 0.3 °C
Kd ([3]; ligand monitored at 335 nm): 6.2 ± 0.4 µM
Kd ([4]; ligand monitored at 335 nm): 8.2 ± 0.7 µM
Kd ([5]; ligand monitored at 335 nm): 6.6 ± 0.9 µM
Kd ([6]; ligand monitored at 335 nm): 20 ± 1.8 µM
Kd ([7]; ligand monitored at 335 nm): 2.4 ± 0.2 µM
Kd ([8]; ligand monitored at 335 nm): 10 ± 1.3 µM
Kd ([9]; ligand monitored at 335 nm): 6.0 ± 0.9 µM
ΔTm [10]: 9 ± 0.8 °C
ΔTm [11]: -1 ± 1.0 °C
DC50 [1, 12]: 13 ± 3.0 µM

CCC(=O)c1ccc(O)c(O)c1
DC50 [1, 12]: 1.5 ± 0.1 µM

COc1cccc2c1C(=O)c1c(O)c3c(c(O)c1C2=O)C[C@@](O)(C(C)=NO)C[C@@H]3O[C@H]1C[C@H](N)[C@H](O)[C@H](C)O1
DC50 [1, 12]: 4.9 ± 1.5 µM

Cc1ccc(NCCN(C)C)c2c(=O)c3cc(O)ccc3sc12
DC50 [1, 12]: 3.4 ± 0.5 µM

Nc1ccc(-c2nc3nc(N)nc(N)c3nc2-c2ccc(N)cc2)cc1
DC50 [1, 12]: 12 ± 3.4 µM

Cc1cc2nc3ccc(N(C)C)cc3[s+]c2cc1N
DC50 [1, 12]: 16 ± 2.7 µM

O=C(Nc1ccc(Nc2ccncc2)cc1)c1ccc(Nc2ccnc3ccc([N+](=O)[O-])cc23)cc1[N+](=O)[O-]
ΔTm ([2]; error ± 0.3): 5 ± 1.0 °C
Kd ([3]; ligand monitored at 320 nm): 1.0 ± 0.1 µM
Kd ([4]; ligand monitored at 320 nm): 1.6 ± 0.2 µM
Kd ([5]; ligand monitored at 320 nm): 0.6 ± 0.1 µM
Kd ([6]; ligand monitored at 320 nm): 0.25 ± 0.1 µM
Kd ([7]; ligand monitored at 320 nm): 1.9 ± 0.1 µM
Kd ([8]; ligand monitored at 320 nm): 1.1 ± 0.2 µM
Kd ([9]; ligand monitored at 320 nm): 0.9 ± 0.1 µM
ΔTm [10]: 0 ± 0.7 °C
DC50 ([1]; poor ligand solubility): > 20 µM
